Data published in the supplement of paper PMC10627819.

Key:
B. subtilis 168 = assay: Bliss interaction score (quartile over a dose matrix) (fitness difference); higher = more antagonism (negative = synergy)
Outline: (§1)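 Fitness was defined as normalised growth: OD595 at the start of stationary phase divided by the plate's robust no-drug mean and capped at 1. Single-drug fitness was inferred from combination measurements. The Bliss score is observed fitness minus the product of the single-drug values, summarised by quartiles across technical, biological and donor/recipient replicates.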

S. aureus DSM 20231 [1] = assay: as above
Outline: as §1

S. pneumoniae D39V [2] = assay: as above
Outline: as §1

S. aureus Newman [3] = assay: as above
Outline: as §1

S. aureus DSM 20231 [4] = assay: fitness (endpoint OD595 vs no drug) (fraction); higher = more growth
Outline: (§2)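 Fitness is computed from the optical density at which cultures reach stationary phase, divided by the robust mean of no-drug control wells. Any value above 1 is set to 1. Cultures started at OD595 0.01 in 384-well plates with TSB, LB Lennox or CY at 37 °C, and OD595 was read every 30 min for 14 h against a first-reading background.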

S. pneumoniae D39V [5] = assay: as above
Outline: as §2

S. aureus Newman [6] = assay: as above
Outline: as §2
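For Bliss interaction score (quartile over a dose matrix) in this document: first quartile when negative (synergy) and third quartile when positive (antagonism).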
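For fitness (endpoint OD595 vs no drug) in this document: OD595 on entry to stationary phase over no-drug wells; at most 1.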

C[n+]1ccc(-c2cc[n+](C)cc2)cc1 [Paraquat] + CN[C@H](CC(C)C)C(=O)N[C@H]1C(=O)N[C@@H](CC(N)=O)C(=O)N[C@H]2C(=O)N[C@H]3C(=O)N[C@H](C(=O)N[C@H](C(=O)O)c4cc(O)cc(O)c4-c4cc3ccc4O)[C@H](O)c3ccc(c(Cl)c3)Oc3cc2cc(c3O[C@@H]2O[C@H](CO)[C@@H](O)[C@H](O)[C@H]2O[C@H]2C[C@](C)(N)[C@H](O)[C@H](C)O2)Oc2ccc(cc2Cl)[C@H]1O [Vancomycin]
Conditions | Bliss interaction score
B. subtilis 168 | 0.0779
S. aureus DSM 20231 [1] | 0.0505
S. aureus Newman [3] | 0.0613
S. pneumoniae D39V [2] | 0.101

Conditions | fitness
S. aureus DSM 20231 [4], first compound 1.25 µg/mL, partner 0.1875 µg/mL | 0.908
S. aureus DSM 20231 [4], first compound 1.25 µg/mL, partner 0.375 µg/mL | 0.956
S. aureus DSM 20231 [4], first compound 1.25 µg/mL, partner 0.75 µg/mL | 0.963
S. aureus DSM 20231 [4], first compound 2.5 µg/mL, partner 0.1875 µg/mL | 0.87
S. aureus DSM 20231 [4], first compound 2.5 µg/mL, partner 0.375 µg/mL | 0.986
S. aureus DSM 20231 [4], first compound 2.5 µg/mL, partner 0.75 µg/mL | 0.969
S. aureus DSM 20231 [4], first compound 5 µg/mL, partner 0.1875 µg/mL | 0.861
S. aureus DSM 20231 [4], first compound 5 µg/mL, partner 0.375 µg/mL | ≥ 1
S. aureus DSM 20231 [4], first compound 5 µg/mL, partner 0.75 µg/mL | 0.964
S. aureus Newman [6], first compound 1.25 µg/mL, partner 0.1875 µg/mL | 0.933
S. aureus Newman [6], first compound 1.25 µg/mL, partner 0.375 µg/mL | 0.898
S. aureus Newman [6], first compound 2.5 µg/mL, partner 0.1875 µg/mL | 0.911
S. aureus Newman [6], first compound 2.5 µg/mL, partner 0.375 µg/mL | 0.898
S. aureus Newman [6], first compound 5 µg/mL, partner 0.1875 µg/mL | 0.933
S. aureus Newman [6], first compound 5 µg/mL, partner 0.375 µg/mL | 0.917
S. aureus Newman [6], first compound 5 µg/mL, partner 0.75 µg/mL | 0.935
S. pneumoniae D39V [5], first compound 1.5 µg/mL, partner 0.03125 µg/mL | 0.998
S. pneumoniae D39V [5], first compound 1.5 µg/mL, partner 0.0625 µg/mL | 0.984
S. pneumoniae D39V [5], first compound 1.5 µg/mL, partner 0.125 µg/mL | 0.855
S. pneumoniae D39V [5], first compound 3 µg/mL, partner 0.03125 µg/mL | 1
S. pneumoniae D39V [5], first compound 3 µg/mL, partner 0.0625 µg/mL | 0.994
S. pneumoniae D39V [5], first compound 3 µg/mL, partner 0.125 µg/mL | 0.851
S. pneumoniae D39V [5], first compound 6 µg/mL, partner 0.03125 µg/mL | ≥ 1
S. pneumoniae D39V [5], first compound 6 µg/mL, partner 0.0625 µg/mL | 0.974
S. pneumoniae D39V [5], first compound 6 µg/mL, partner 0.125 µg/mL | 0.891

fitness, S. pneumoniae D39V [5], one replicate
Conditions | first compound 1.5 µg/mL | first compound 3 µg/mL | first compound 6 µg/mL
partner 0.25 µg/mL | 0.18 | 0.249 | 0.372
partner 0.5 µg/mL | 0.0697 | 0.0334 | 0.129

C[n+]1ccc(-c2cc[n+](C)cc2)cc1 [Paraquat] + Cn1nnc(-c2ccc(-c3ccc(N4C[C@H](CO)OC4=O)cc3F)cn2)n1 [Tedizolid]
Conditions | Bliss interaction score
B. subtilis 168 | 0.075
S. aureus DSM 20231 [1] | 0.0784
S. aureus Newman [3] | -0.041
S. pneumoniae D39V [2] | -0.0684

fitness
Conditions | partner 0.03125 µg/mL | partner 0.0625 µg/mL | partner 0.125 µg/mL | partner 0.25 µg/mL
S. aureus DSM 20231 [4], first compound 1.25 µg/mL | – | 0.866 | 0.644 | 0.117
S. aureus DSM 20231 [4], first compound 2.5 µg/mL | – | 0.803 | 0.583 | 0.161
S. aureus DSM 20231 [4], first compound 5 µg/mL | – | 0.836 | 0.588 | 0.137
S. aureus Newman [6], first compound 1.25 µg/mL | – | 0.855 | 0.762 | –
S. aureus Newman [6], first compound 2.5 µg/mL | – | 0.902 | 0.805 | –
S. aureus Newman [6], first compound 5 µg/mL | – | 0.843 | – | –
S. pneumoniae D39V [5], first compound 1.5 µg/mL | 0.926 | 0.948 | 0.86 | –
S. pneumoniae D39V [5], first compound 3 µg/mL | 0.956 | 0.951 | 0.846 | –
S. pneumoniae D39V [5], first compound 6 µg/mL | 0.932 | 0.934 | 0.817 | –

fitness, S. pneumoniae D39V [5], one replicate
Conditions | first compound 1.5 µg/mL | first compound 3 µg/mL | first compound 6 µg/mL
partner 0.25 µg/mL | 0.796 | 0.786 | 0.808
partner 0.5 µg/mL | 0.626 | 0.603 | 0.602

Cn1c2cccc(=O)c-2nc2ccccc21 [Pyocyanin] + CCCCCCCCCC(=O)N[C@@H]1[C@H]([C@@H]([C@H](O[C@H]1OC2=C3C=C4C=C2OC5=C(C=C(C=C5)[C@H]([C@H]6C(=O)N[C@@H](C7=C(C(=CC(=C7)O)OC8[C@H]([C@H]([C@@H]([C@H](O8)CO)O)O)O)C9=C(C=CC(=C9)[C@H](C(=O)N6)NC(=O)[C@@H]4NC(=O)[C@@H]1C2=CC(=CC(=C2)OC2=C(C=CC(=C2)[C@H](C(=O)N[C@H](CC2=CC(=C(O3)C=C2)Cl)C(=O)N1)N)O)O)O)C(=O)O)O[C@H]1[C@@H]([C@H]([C@@H]([C@H](O1)CO)O)O)NC(=O)C)Cl)CO)O)O [Teicoplanin]
main component drawn
Conditions | Bliss interaction score
B. subtilis 168 | -0.0698
S. aureus DSM 20231 [1] | 0.0554
S. aureus Newman [3] | -0.114
S. pneumoniae D39V [2] | 0.0954

fitness, main component drawn
Conditions | first compound 1.25 µg/mL | first compound 2.5 µg/mL | first compound 5 µg/mL
S. aureus DSM 20231 [4], partner 0.1562 µg/mL | 0.99 | 0.906 | 0.619
S. aureus DSM 20231 [4], partner 0.3125 µg/mL | ≥ 1 | 0.962 | 0.647
S. aureus DSM 20231 [4], partner 0.625 µg/mL | ≥ 1 | ≥ 1 | 0.691
S. aureus Newman [6], partner 0.1562 µg/mL | 0.958 | 0.805 | 0.372
S. aureus Newman [6], partner 0.3125 µg/mL | 0.891 | 0.769 | 0.35
S. aureus Newman [6], partner 0.625 µg/mL | 0.708 | 0.54 | 0.247

fitness, S. aureus Newman [6], one replicate, main component drawn
Conditions | first compound 1.25 µg/mL | first compound 2.5 µg/mL | first compound 5 µg/mL
partner 0.62 µg/mL | 0.72 | 0.696 | 0.473
partner 1.24 µg/mL | 0.698 | 0.558 | 0.238
partner 2.48 µg/mL | 0.328 | 0.14 | 0.072

Cn1c2cccc(=O)c-2nc2ccccc21 [Pyocyanin] + CN[C@H](CC(C)C)C(=O)N[C@H]1C(=O)N[C@@H](CC(N)=O)C(=O)N[C@H]2C(=O)N[C@H]3C(=O)N[C@H](C(=O)N[C@H](C(=O)O)c4cc(O)cc(O)c4-c4cc3ccc4O)[C@H](O)c3ccc(c(Cl)c3)Oc3cc2cc(c3O[C@@H]2O[C@H](CO)[C@@H](O)[C@H](O)[C@H]2O[C@H]2C[C@](C)(N)[C@H](O)[C@H](C)O2)Oc2ccc(cc2Cl)[C@H]1O [Vancomycin]
Conditions | Bliss interaction score
B. subtilis 168 | -0.0201
S. aureus DSM 20231 [1] | 0.0758
S. aureus Newman [3] | 0.0784
S. pneumoniae D39V [2] | 0.0635

Conditions | fitness
S. aureus DSM 20231 [4], first compound 1.25 µg/mL, partner 0.1875 µg/mL | 0.796
S. aureus DSM 20231 [4], first compound 1.25 µg/mL, partner 0.375 µg/mL | 0.856
S. aureus DSM 20231 [4], first compound 1.25 µg/mL, partner 0.75 µg/mL | 0.921
S. aureus DSM 20231 [4], first compound 2.5 µg/mL, partner 0.1875 µg/mL | 0.852
S. aureus DSM 20231 [4], first compound 2.5 µg/mL, partner 0.375 µg/mL | 0.861
S. aureus DSM 20231 [4], first compound 2.5 µg/mL, partner 0.75 µg/mL | 0.934
S. aureus DSM 20231 [4], first compound 5 µg/mL, partner 0.1875 µg/mL | 0.659
S. aureus DSM 20231 [4], first compound 5 µg/mL, partner 0.375 µg/mL | 0.745
S. aureus DSM 20231 [4], first compound 5 µg/mL, partner 0.75 µg/mL | 0.726
S. aureus Newman [6], first compound 1.25 µg/mL, partner 0.1875 µg/mL | 0.907
S. aureus Newman [6], first compound 1.25 µg/mL, partner 0.375 µg/mL | 0.899
S. aureus Newman [6], first compound 1.25 µg/mL, partner 0.75 µg/mL | 0.84
S. aureus Newman [6], first compound 2.5 µg/mL, partner 0.1875 µg/mL | 0.855
S. aureus Newman [6], first compound 2.5 µg/mL, partner 0.375 µg/mL | 0.768
S. aureus Newman [6], first compound 5 µg/mL, partner 0.75 µg/mL | 0.393
S. pneumoniae D39V [5], first compound 0.325 µg/mL, partner 0.03125 µg/mL | ≥ 1
S. pneumoniae D39V [5], first compound 0.325 µg/mL, partner 0.0625 µg/mL | 0.994
S. pneumoniae D39V [5], first compound 0.325 µg/mL, partner 0.125 µg/mL | 0.921
S. pneumoniae D39V [5], first compound 0.65 µg/mL, partner 0.03125 µg/mL | 0.962
S. pneumoniae D39V [5], first compound 0.65 µg/mL, partner 0.0625 µg/mL | 0.952
S. pneumoniae D39V [5], first compound 1.3 µg/mL, partner 0.03125 µg/mL | 0.686
S. pneumoniae D39V [5], first compound 1.3 µg/mL, partner 0.0625 µg/mL | 0.651

fitness, S. pneumoniae D39V [5], one replicate
Conditions | first compound 0.325 µg/mL | first compound 0.65 µg/mL
partner 0.25 µg/mL | 0.584 | 0.724
partner 0.5 µg/mL | 0.314 | 0.391
